Experiments:
Type in all cases: in vivo
[1] = system: Euschistus heros (Neotropical Brown Stink Bug); assay: Activity against Euschistus heros (neotropical brown stink bug); conditions: 120 h, application rate of 200 ppm, soybean leaves sprayed, N2 nymphs, 5 days after infestation, read-out: effect in at least one of the two categories (mortality or growth inhibition)
Procedure: Example B4: Activity Against Euschistus heros (Neotropical Brown Stink Bug)
Soybean leaves on agar in 24-well microtiter plates were sprayed with aqueous test solutions prepared from 10′000 ppm DMSO stock solutions. After drying the leaves were infested with N2 nymphs. The samples were assessed for mortality and growth inhibition in comparison to untreated samples 5 days after infestation.

[2] = system: Frankliniella occidentalis (Western Flower Thrips); assay: Activity against Frankliniella occidentalis (western flower thrips), feeding/contact activity; conditions: foliar, 168 h, application rate of 200 ppm, sunflower leaf discs sprayed, population of mixed ages, 7 days after infestation
Procedure: Example B5: Activity Against Frankliniella occidentalis (Western Flower Thrips) Feeding/Contact Activity
Sunflower leaf discs were placed on agar in 24-well microtiter plates and sprayed with aqueous test solutions prepared from […] stock solutions. After drying the leaf discs were infested with a Frankliniella population of mixed ages. The samples were assessed for mortality 7 days after infestation.

[3] = system: Carpocapsa (Cydia) Pomonella (Codling Moth); assay: Activity against Carpocapsa (Cydia) pomonella (codling moth), larvicide, feeding/contact; conditions: 336 h, application rate of 12.5 ppm, paraffin-coated diet cubes sprayed, L1 larvae, 14 days after infestation, 26-27° C.
Procedure: Example B10: Activity Against Carpocapsa (Cydia) Pomonella (Codling Moth) Larvicide, Feeding/Contact
Diet cubes coated with paraffin were sprayed with diluted test solutions in an application chamber. After drying off the treated cubes (10 replicates) were infested with 1 L1 larvae. Samples were incubated at 26-27° C. and checked 14 days after infestation for mortality and growth inhibition.

[4] = system: Plutella xylostella (Diamond Back Moth); assay: Activity against Plutella xylostella (diamond back moth); conditions: 192 h, application rate of 200 ppm, artificial diet, Plutella eggs, 8 days after infestation, read-out: effect in at least one of the two categories (mortality or growth inhibition)
Procedure: Example B7: Activity Against Plutella xylostella (Diamond Back Moth)
24-well microtiter plates with artificial diet were treated with aqueous test solutions prepared from 10′000 ppm DMSO stock solutions by pipetting. After drying, Plutella eggs were pipetted through a plastic stencil onto a gel blotting paper and the plate was closed with it. The samples were assessed for mortality and growth inhibition in comparison to untreated samples 8 days after infestation.

[5] = system: Myzus persicae (Green Peach Aphid); assay: Activity against Myzus persicae (green peach aphid), feeding/contact activity; conditions: foliar, 144 h, application rate of 200 ppm, sunflower leaf discs sprayed, aphid population of mixed ages, 6 days after infestation
Procedure: Example B6: Activity Against Myzus persicae (Green Peach Aphid) Feeding/Contact Activity
Sunflower leaf discs were placed onto agar in a 24-well microtiter plate and sprayed with aqueous test solutions prepared from 10′000 ppm DMSO stock solutions. After drying, the leaf discs were infested with an aphid population of mixed ages. The samples were assessed for mortality 6 days after infestation.

[6] = system: Chilo suppressalis (Striped Rice Stemborer); assay: Activity against Chilo suppressalis (striped rice stemborer); conditions: 144 h, application rate of 200 ppm, artificial diet, L2 larvae, 6 days after infestation, read-out: control (at least one of mortality, anti-feedant effect, growth inhibition)
Procedure: Example B2: Activity Against Chilo suppressalis (Striped Rice Stemborer)
24-well microtiter plates with artificial diet were treated with aqueous test solutions prepared from 10′000 ppm DMSO stock solutions by pipetting. After drying, the plates were infested with L2 larvae (6-8 per well). The samples were assessed for mortality, anti-feeding effect, and growth inhibition in comparison to untreated samples 6 days after infestation. Control of Chilo suppressalis by a test sample is given when at least one of the categories mortality, anti-feedant effect, and growth inhibition is higher than the untreated sample.

[7] = system: Spodoptera littoralis (Egyptian Cotton Leaf Worm); assay: Activity against Spodoptera littoralis (Egyptian cotton leaf worm); conditions: foliar, 72 h, application rate of 200 ppm, cotton leaf discs sprayed, L1 larvae, 3 days after infestation, read-out: control (at least one of mortality, anti-feedant effect, growth inhibition)
Procedure: Example B8: Activity Against Spodoptera littoralis (Egyptian Cotton Leaf Worm)
Cotton leaf discs were placed onto agar in 24-well microtiter plates and sprayed with aqueous test solutions prepared from 10′000 ppm DMSO stock solutions. After drying the leaf discs were infested with five L1 larvae. The samples were assessed for mortality, anti-feeding effect, and growth inhibition in comparison to untreated samples 3 days after infestation. Control of Spodoptera littoralis by a test sample is given when at least one of the categories mortality, anti-feedant effect, and growth inhibition is higher than the untreated sample.

[8] = system: Diabrotica balteata (Corn Root Worm); assay: Activity against Diabrotica balteata (corn root worm); conditions: 96 h, application rate of 200 ppm, maize sprouts sprayed, L2 larvae, 4 days after infestation, read-out: effect in at least one of the two categories (mortality or growth inhibition)
Procedure: Example B3: Activity Against Diabrotica balteata (Corn Root Worm)
Maize sprouts placed onto an agar layer in 24-well microtiter plates were treated with aqueous test solutions prepared from 10′000 ppm DMSO stock solutions by spraying. After drying, the plates were infested with L2 larvae (6 to 10 per well). The samples were assessed for mortality and growth inhibition in comparison to untreated samples 4 days after infestation.

CCS(=O)(=O)c1c(N2Cc3cc4c(cc3C2=O)OC(F)(F)O4)nc(-c2ccc(C3(C#N)CC3)cc2)n1C [Compound P2, 1-[4-[4-(2,2-difluoro-7-oxo-5H-[1,3]dioxolo[4,5-f]isoindol-6-yl)-5-ethylsulfonyl-1-methyl-imidazol-2-yl]phenyl]cyclopropanecarbonitrile]
≥ 80%: percent effect (mortality or growth inhibition) at 200 ppm [1] | mortality at 200 ppm [2] | mortality at 12.5 ppm [3] | percent effect (mortality or growth inhibition) at 200 ppm [4] | mortality at 200 ppm [5] | percent control (mortality, anti-feedant effect or growth inhibition) at 200 ppm [6] | percent control (mortality, anti-feedant effect or growth inhibition) at 200 ppm [7] | percent effect (mortality or growth inhibition) at 200 ppm [8]
